± gives the expanded uncertainty stated by the source.

Here are results for eight compounds from the NIST ThermoML archive (doi:10.1016/j.fluid.2010.12.008).

For data set [1] the following is noted: for Normal melting temperature: Crystal 1.
Data set [2] is described as follows: Molar enthalpy of transition or fusion. The following applies: DSC.

As for `CCCC[N+]1(C)CCCCC1.N#C[S-]` [1-butyl-1-methylpiperidinium thiocyanate], the Normal melting temperature in data set [1] (DTA) was 31.17 ± 0.5 °C. For the same compound, the Triple point temperature in data set [1] (Crystal 2, DTA) is listed as 274.2 ± 0.5 K. Moreover, the Glass transition temperature in data set [1] (Glass, DTA) is -71.8 ± 10 °C. Further, the “Molar enthalpy of transition or fusion” value in data set [2] (Crystal 1) amounted to 0.722 ± 0.0478 kcal/mol; in data set [2] (Crystal 2) it was 3.65 ± 0.117 kcal/mol.
With `CCCCCCCCO` [octan-1-ol], the Normal melting temperature in data set [1] (visual observation) is -16.00 ± 1.1 °C.
Still for that read-out and setting: for `CCCCCCCO` [heptan-1-ol] the value was -34.60 ± 1.1 °C; for `CCCCCCCCCCCCO` [dodecan-1-ol], 24.00 ± 1.1 °C; for `CCCCCCO` [hexan-1-ol], -45.00 ± 1.1 °C.
Same read-out and setting: for `O` [water] the value was 0.00 ± 1.1 °C.
Take `CC[N+]1(C)CCCCC1.O=S(=O)([N-]S(=O)(=O)C(F)(F)F)C(F)(F)F`: the Normal melting temperature was found to be 84.89 ± 0.5 °C in data set [1] (DTA) and 84.56 ± 0.5 °C in data set [1] (visual observation). Further, the Triple point temperature in data set [1] (Crystal 2, visual observation) is given as 289.6 ± 0.5 K; in data set [1] (Crystal 3, DTA), 215.8 ± 0.5 K. Further, the results for the “Molar enthalpy of transition or fusion” value in data set [2] (Crystal 1), in data set [2] (Crystal 2) and in data set [2] (Crystal 3) were 3.97 ± 0.124 kcal/mol, 0.844 ± 0.0454 kcal/mol and 0.586 ± 0.0406 kcal/mol, respectively.
Consider `CCCCCCCCCCO` [decan-1-ol], for which, in data set [1] (visual observation), the Normal melting temperature was 7.00 ± 1.1 °C.
